{"source": "patent US6235717A", "about": "“Pharmaceutical compounds” (Glaxo Wellcome Inc., priority 1993, dated 2001)", "note": "Non-standard residues stand in square brackets, D forms with d. Residues, ends and D or L forms follow the SMILES beside them. *: point of attachment. Phe(4-Br) = N[CH](Cc1ccc(Br)cc1)C(=O)O; Cha = N[CH](CC1CCCCC1)C(=O)O; Cbz = O=C(OCc1ccccc1)*; Bn = c1ccc(C*)cc1"}
{"target": "endothelin converting enzyme (ECE) (Sus scrofa, UniProt F1SU04)", "sequence (F1SU04 entry or part of it)": "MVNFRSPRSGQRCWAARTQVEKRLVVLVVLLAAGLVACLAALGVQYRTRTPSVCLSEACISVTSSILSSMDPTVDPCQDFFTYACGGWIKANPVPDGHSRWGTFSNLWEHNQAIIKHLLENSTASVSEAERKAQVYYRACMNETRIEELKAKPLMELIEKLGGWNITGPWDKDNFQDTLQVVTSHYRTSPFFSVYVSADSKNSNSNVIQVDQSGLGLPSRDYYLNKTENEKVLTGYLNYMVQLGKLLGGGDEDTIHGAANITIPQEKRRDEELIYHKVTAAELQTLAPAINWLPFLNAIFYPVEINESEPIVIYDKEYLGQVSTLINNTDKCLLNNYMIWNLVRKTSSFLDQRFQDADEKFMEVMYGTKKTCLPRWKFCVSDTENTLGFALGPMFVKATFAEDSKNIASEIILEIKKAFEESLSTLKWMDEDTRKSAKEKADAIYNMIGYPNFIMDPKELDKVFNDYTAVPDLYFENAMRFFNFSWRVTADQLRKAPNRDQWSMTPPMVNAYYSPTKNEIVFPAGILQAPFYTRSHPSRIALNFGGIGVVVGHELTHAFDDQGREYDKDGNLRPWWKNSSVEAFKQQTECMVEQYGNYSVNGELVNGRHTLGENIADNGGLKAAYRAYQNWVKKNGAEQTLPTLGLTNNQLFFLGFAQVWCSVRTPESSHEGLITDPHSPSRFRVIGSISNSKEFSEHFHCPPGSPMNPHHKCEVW", "assay": "\"ECE\" assay with porcine aortic \"ECE\" prep, fluorogenic substrate Suc-Ile-Ile-Trp-MCA", "type": "biochemical", "conditions": "porcine aortic endothelial cell ECE prep; 80 μM Suc-Ile-Ile-Trp-MCA; 15-20 min preincubation; overnight at 37° C.; pH 7.0; AMC fluorescence", "protocol": "IC50 values were determined as follows:\nPorcine Aortic \"ECE\" Prep\nPorcine aortas (22-25) were obtained fresh from a local slaughterhouse and delivered in cold PBS on ice. The aortas were cut open, rinsed with cold PBS and the endothelial cell layer scraped into cold PBS using a scalpel. The endothelial cells were pelleted by centrifugation, rinsed once with cold PBS, and repelleted. The pellet was lysed by addition of 10 volumes of 10 mM Tris-HCl, pH 7.0, containing protease inhibitors and DTS, followed by brief sonication and homogenization. The lysate was centrifuged at 100,000 g for 1 hour and the supernatant applied to a MONOQ FPLC anion exchange column equilibrated in 10 mM Tris-HCl, pH 7.0 (buffer A) which was then developed with an increasing gradient of NaCl in buffer A. The active fractions were aliquoted and stored at -70° C.\nThe ECE assay was performed in 96-well microplates in a total volume of 200μ/well. The assay cocktail contains 100 mM Tris-HCl, pH 7.0, 20 mM CaCl2, 80 μM substrate (Suc-Ile-Ile-Trp-MCA), enzyme and test compounds. The test compounds were preincubated with the enzyme for 15-20 minutes before initiation of the assay by addition of the substrate. The assay was incubated overnight at 37° C. and the fluorescence intensity caused by the release of AMC was determined using a fluorescence microplate reader (EX360 nm/EM460 nm). IC50 values for compounds were determined by constructing concentration-effect curves for the inhibition of enzyme activity. Concentrations on the linear portion of the inhibition curve were used to determine the IC50 utilizing a Hill plot.", "units": {"IC50": "nM"}}
{"compound": "O=C(N[C@@H](Cc1ccc(Br)cc1)C(=O)N[C@@H](Cc1cccc2ccccc12)C(=O)NC(Cc1ccccc1)C(=O)C1CO1)OCc1ccccc1", "note": "(some centres unmarked) [Example 94]", "IC50": 6}
{"compound": "CC[C@H](C)[C@H](NC(=O)OCc1ccccc1)C(=O)N[C@H](C(=O)NC(Cc1c[nH]c2ccccc12)CN1C(=O)C=CC1=O)[C@@H](C)CC", "note": "(stereo partly drawn) [Example 95, N-[(benzyloxy)carbonyl]-L-isoleucyl-L-isoleucine-L-N-[1-(N-maleimidomethyl)-2-(1H-indol-3-yl)ethyl]amide]", "IC50": 1000}
{"compound": "CC[C@H](C)[C@H](NC(=O)OCc1ccccc1)C(=O)N[C@H](C(=O)NC(Cc1ccccc1)C(=O)C(=O)C(=O)OC)[C@@H](C)CC", "note": "(stereo partly drawn) [Example 96, N-[(benzyloxy)carbonyl]-L-isoleucyl-L-isoleucine-L-N-[1-(3-methoxycarbonyloxalyl]2-(phenyl)ethyl]amide]", "IC50": 10000}
{"compound": "O=CC(Cc1ccc(Br)cc1)NC(=O)C(Cc1ccc(OCc2ccccc2)cc1)NC(=O)C(CC1CCCCC1)NC(=O)OCc1ccccc1", "note": "(stereo not drawn) [Example 97, N-Benzyloxycarbonyl-S-cyclohexylalanyl-S-(O-benzyl)tyrosyl-1-S-formyl-1-(4-bromophenylmethyl)-methylamide] (Cbz-[Cha]-Tyr(Bn)-[Phe(4-Br)]-aldehyde; configuration not given here)", "IC50": 10000}
{"compound": "O=C[C@H](Cc1ccc(Br)cc1)NC(=O)[C@H](Cc1ccc(OCc2ccccc2)cc1)NC(=O)[C@H](Cc1ccc(OCc2ccccc2)cc1)NC(=O)OCc1ccccc1", "note": "[Example 98, N-Benzyloxycarbonyl-S-(O-benzyl)tyrosyl-S-(O-benzyl)tyrosyl-1-S-formyl-1-(4-bromophenylmethyl)-methylamide] (Cbz-Tyr(Bn)-Tyr(Bn)-[Phe(4-Br)]-aldehyde)", "IC50": 1000}
{"compound": "CCOc1ccc(CC(NC(=O)C(Cc2ccc(OCc3ccccc3)cc2)NC(=O)OCc2ccccc2)C(=O)NC(C=O)Cc2ccc(Br)cc2)cc1", "note": "(stereo not drawn) [Example 99, N-Benzyloxycarbonyl-S-(O-benzyl)tyrosyl-S-(O-ethyl)tyrosyl-1-S-formyl-1-(4-bromophenylmethyl)-methylamide] (Cbz-Tyr(Bn)-Tyr(Et)-[Phe(4-Br)]-aldehyde; configuration not given here)", "IC50": 20}
{"compound": "CCOc1ccc(C[C@H](NC(=O)OCc2ccccc2)C(=O)N[C@@H](Cc2ccc(OCc3ccccc3)cc2)C(=O)N[C@H](C=O)Cc2ccc(Br)cc2)cc1", "note": "[Example 100, N-Benzyloxycarbonyl-S-(O-ethyl)tyrosyl-S-(O-benzyl)tyrosyl-1-S-formyl-1-(4-bromophenylmethyl)-methylamide] (Cbz-Tyr(Et)-Tyr(Bn)-[Phe(4-Br)]-aldehyde)", "IC50": 60}
{"compound": "N-(3-Phenylpropionyl)-L-isoleucyl-L_isoleucine-L-N-[1-formyl]2-(1H-indol-3- yl)ethyl]amide [Example 59]", "IC50": 100}
{"compound": "N-(benzyloxy)carbonyl-L-isoleucyl-L-isoleucine-L-N[1-[[(5-nitro-2-pyridyl)dithio]methyl]-2-(1H-indol-3-yl)ethyl]amide [Example 57]", "IC50": 1000}
{"compound": "N-Benzloxycarbonyl-L-isoleucyl-L-isoleucine-L-N-[1-ethoxalyl]2-(phenyl)ethyl]amide [Example 53]", "IC50": 10000}
{"compound": "N-Benzyloxycarbonyl-L-isoleucyl-L-isoleucine-L-N-[1-[2-oxiranylcarbonyl]-2- (phenyl)ethyl]amide [Example 45]", "IC50": 200}
{"compound": "N-Benzyloxycarbonyl-L-isoleucyl-L-isoleucine-L-N-[1-formylhydroxymethyl-2-(phenylethyl]amide) [Example 47]", "IC50": 5000}
{"compound": "N-Benzyloxycarbonyl-L-isoleucyl-L-isoleucine-L-N-[1-glyoxyloyl-2-(phenyl)ethyl]amide [Example 46]", "IC50": 800}
{"compound": "N-Benzyloxycarbonyl-L-isoleucyl-L-isoleucine-L-N-[1pyruvoyl]2-(phenyl)ethyl]amide [Example 52]", "IC50": 2000}
{"compound": "N-Benzyloxycarbonyl-L-isoleucyl-L-isoleucine-L-N-[(E)-2-(methoxycarbonyl)vinyl]2-(1H-indol-3-yl)ethyl]amide [Example 51]", "IC50": 10000}
{"compound": "N-Benzyloxycarbonyl-L-isoleucyl-L_isoleucine-L-N-[1[2-(acetylthio)acetyl]2- phenyl)ethyl]amide [Example 55]", "IC50": 8000}
{"compound": "N-Benzyloxycarbonyl-S-isoleucyl-S-phenylalanyl-1-S-formyl-1-(S)-1-methylpropylbutyl-methylamide [Example 23]", "IC50": 3500}
{"compound": "N-Benzyloxycarbonyl-S-p-bromophenylalanyl-S-2'naphthylalanyl-1-S-formyl-1-(1H-indol-3-yl-methyl)-methylamide [Example 38]", "IC50": 8}
{"compound": "N-Benzyloxycarbonyl-S-tryptophanyl-S-2'naphthylalanyl-1-S-formyl-1-(1H-indol-3-yl-methyl)-methylamide [Example 35]", "IC50": 30}
{"compound": "N-Benzyloxycarbonyl-S-tryptophanyl-S-tryptophanyl-1-S-formyl-1-(1H-indol-3- yl-methyl)-methylamide [Example 31]", "IC50": 60}
{"compound": "N-[12-[(benzyloxy)acetamido]dodecanoyl]--L-isoleucyl-L-isoleucine-L-N-[1-formyl]2-(1H-indol-3-yl)ethyl]amide [Example 79]", "IC50": 60}
{"compound": "N-[(benzyloxy)carbonyl]-L-aspart-1-yl]-L-isoleucyl-L-isoleucine-L-N-[1-dimethoxymethyl]2-(1H-indol-3-yl)ethyl]amide [Example 76]", "IC50": 2600}
{"compound": "N-[[5-(hexahydro-2-oxo-1H-thieno[3,4-d]imidazol-4-yl]valeryl-L-isoleucyl-L- isoleucine-L-N-[1-formyl]2-(1H-indol-3-yl)ethyl]amide [Example 63]", "IC50": 30}
{"compound": "N-[[[5-(hexahydro-2-oxo-1H-thieno[3,4-d]imidazol-4-yl)valeramido]hexanoyl]- L-isoleucyl-L-isoleucine-L-N-[1-formyl]2-(1H-indol-3-yl-ethyl]amide [Example 67]", "IC50": 80}
{"compound": "N-[benzyloxy)carbonyl]-L-aspart-1-yl]-L-isoleucyl-L-isoleucine-L-N-[1-formyl]2-(1H-indol-3-yl)ethyl]amide [Example 65]", "IC50": 100}
{"compound": "[[5-(hexahydro-2-oxo-1H-thieno[3,4-d]imidazol-4-yl]valeryl-L-isoleucyl-L-isoleucine-L-N-[1-dimethoxymethyl]2-(1H-indol-3-yl)ethyl]amide [Example 62]", "IC50": 2000}
